From ChEMBL document CHEMBL1201862, “PubChem BioAssay data set” (2004)
Active and inactive are the calls of the source. For most assays here, no stated cut-off is given here; in the data, actives have a measured IC50 and inactives only a lower limit.

Columns and labels:
Caspase-3 = biological target: T1, Caspase-3 (Homo sapiens, UniProt P42574); format: functional;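 further: Dose-response selectivity test against caspase-3 for candidate inhibitors of sentrin-specific proteases (SENPs)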
T1 sequence (P42574 whole entry): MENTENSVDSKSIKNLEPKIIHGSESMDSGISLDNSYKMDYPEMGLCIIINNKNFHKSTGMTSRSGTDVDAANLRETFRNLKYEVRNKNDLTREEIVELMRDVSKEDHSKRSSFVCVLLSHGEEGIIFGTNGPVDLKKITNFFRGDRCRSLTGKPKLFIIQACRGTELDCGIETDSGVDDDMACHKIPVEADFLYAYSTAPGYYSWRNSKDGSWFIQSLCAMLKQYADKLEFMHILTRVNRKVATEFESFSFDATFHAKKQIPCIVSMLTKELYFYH

[1] = biological target: T2, Sentrin-specific protease 7 (Homo sapiens, UniProt Q9BQF6); format: functional;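 further: Luminescence-based dose-response confirmation of ultra-high-throughput screening hits, measuring inhibition of SENP7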
T2 sequence (Q9BQF6 whole entry): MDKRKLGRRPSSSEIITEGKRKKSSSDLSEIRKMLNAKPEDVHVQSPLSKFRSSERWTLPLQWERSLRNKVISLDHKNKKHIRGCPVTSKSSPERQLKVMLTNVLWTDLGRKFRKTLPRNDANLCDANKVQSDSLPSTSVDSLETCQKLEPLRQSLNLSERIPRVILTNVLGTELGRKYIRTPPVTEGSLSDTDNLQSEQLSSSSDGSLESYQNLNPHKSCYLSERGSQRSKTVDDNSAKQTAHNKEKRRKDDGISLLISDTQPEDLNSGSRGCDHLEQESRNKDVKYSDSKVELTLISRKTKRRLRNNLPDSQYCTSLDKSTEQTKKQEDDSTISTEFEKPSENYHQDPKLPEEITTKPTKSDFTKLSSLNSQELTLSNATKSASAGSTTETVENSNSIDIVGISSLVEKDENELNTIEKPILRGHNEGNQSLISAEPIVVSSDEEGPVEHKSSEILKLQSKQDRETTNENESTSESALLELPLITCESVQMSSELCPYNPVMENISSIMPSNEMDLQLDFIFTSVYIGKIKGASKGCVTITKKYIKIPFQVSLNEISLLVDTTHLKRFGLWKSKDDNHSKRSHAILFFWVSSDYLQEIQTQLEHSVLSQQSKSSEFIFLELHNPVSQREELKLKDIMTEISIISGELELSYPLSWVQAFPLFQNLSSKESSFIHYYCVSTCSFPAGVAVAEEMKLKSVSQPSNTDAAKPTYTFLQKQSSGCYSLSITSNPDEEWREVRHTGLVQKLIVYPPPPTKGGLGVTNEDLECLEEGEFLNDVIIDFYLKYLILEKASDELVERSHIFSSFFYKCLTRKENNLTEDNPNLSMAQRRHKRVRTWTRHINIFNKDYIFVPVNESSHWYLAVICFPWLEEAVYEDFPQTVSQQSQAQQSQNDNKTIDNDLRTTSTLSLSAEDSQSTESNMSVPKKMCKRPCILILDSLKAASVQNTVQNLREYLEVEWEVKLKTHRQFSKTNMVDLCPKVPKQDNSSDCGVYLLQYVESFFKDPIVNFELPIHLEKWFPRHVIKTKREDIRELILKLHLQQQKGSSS

[2] = biological target: T3, Sentrin-specific protease 6 (Homo sapiens, UniProt Q9GZR1); format: functional;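 further: Luminescence-based dose-response confirmatory assay of SENP6 inhibition, following up an ultra-high-throughput screen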
T3 sequence (Q9GZR1 whole entry): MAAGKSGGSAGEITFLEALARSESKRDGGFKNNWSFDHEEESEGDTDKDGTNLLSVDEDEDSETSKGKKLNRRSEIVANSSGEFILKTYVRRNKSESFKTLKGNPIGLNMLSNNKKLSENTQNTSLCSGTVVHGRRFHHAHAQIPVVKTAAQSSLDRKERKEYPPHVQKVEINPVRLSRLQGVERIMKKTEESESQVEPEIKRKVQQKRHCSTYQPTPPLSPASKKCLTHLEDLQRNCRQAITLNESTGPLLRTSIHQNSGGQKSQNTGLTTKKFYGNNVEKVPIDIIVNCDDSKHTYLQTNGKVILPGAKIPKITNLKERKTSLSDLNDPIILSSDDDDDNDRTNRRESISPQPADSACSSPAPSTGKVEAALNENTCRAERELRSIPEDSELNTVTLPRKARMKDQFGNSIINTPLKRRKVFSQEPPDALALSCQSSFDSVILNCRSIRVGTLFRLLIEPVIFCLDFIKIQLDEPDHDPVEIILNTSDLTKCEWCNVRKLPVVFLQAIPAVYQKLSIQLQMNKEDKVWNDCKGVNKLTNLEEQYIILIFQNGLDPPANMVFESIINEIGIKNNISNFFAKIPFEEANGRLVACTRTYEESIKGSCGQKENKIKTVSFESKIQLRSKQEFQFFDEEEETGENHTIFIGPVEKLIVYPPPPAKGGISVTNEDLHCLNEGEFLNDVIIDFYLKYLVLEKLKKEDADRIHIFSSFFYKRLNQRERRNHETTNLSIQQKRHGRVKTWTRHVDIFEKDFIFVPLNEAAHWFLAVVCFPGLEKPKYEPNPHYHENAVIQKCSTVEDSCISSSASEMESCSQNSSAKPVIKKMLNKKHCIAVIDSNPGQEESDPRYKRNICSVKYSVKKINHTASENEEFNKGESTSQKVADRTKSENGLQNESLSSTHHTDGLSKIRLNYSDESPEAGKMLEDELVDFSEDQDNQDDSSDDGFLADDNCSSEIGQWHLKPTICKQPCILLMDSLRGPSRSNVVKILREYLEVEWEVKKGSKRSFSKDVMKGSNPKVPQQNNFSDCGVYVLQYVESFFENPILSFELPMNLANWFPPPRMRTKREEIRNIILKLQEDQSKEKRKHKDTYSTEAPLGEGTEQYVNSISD

[3] = biological target: T4, Sentrin-specific protease 8 (Homo sapiens, UniProt Q96LD8); format: functional;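 further: luminescence read-out of SENP8 inhibition, dose-response confirmation following an ultra-high-throughput screen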
T4 sequence (Q96LD8 whole entry): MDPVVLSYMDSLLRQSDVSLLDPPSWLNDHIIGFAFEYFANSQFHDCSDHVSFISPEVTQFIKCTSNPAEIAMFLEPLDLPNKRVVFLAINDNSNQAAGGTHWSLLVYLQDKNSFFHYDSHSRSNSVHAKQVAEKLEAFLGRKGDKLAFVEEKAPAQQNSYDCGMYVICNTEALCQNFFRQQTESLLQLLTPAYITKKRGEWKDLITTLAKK

[4] = biological target: Serine/threonine-protein phosphatase (Homo sapiens, UniProt Q9BPW0); experiment: inhibition of protein phosphatase 5 activity – biochemical, fluorescence, dose response (AID 2395)
Sequence of Serine/threonine-protein phosphatase (Q9BPW0 whole entry): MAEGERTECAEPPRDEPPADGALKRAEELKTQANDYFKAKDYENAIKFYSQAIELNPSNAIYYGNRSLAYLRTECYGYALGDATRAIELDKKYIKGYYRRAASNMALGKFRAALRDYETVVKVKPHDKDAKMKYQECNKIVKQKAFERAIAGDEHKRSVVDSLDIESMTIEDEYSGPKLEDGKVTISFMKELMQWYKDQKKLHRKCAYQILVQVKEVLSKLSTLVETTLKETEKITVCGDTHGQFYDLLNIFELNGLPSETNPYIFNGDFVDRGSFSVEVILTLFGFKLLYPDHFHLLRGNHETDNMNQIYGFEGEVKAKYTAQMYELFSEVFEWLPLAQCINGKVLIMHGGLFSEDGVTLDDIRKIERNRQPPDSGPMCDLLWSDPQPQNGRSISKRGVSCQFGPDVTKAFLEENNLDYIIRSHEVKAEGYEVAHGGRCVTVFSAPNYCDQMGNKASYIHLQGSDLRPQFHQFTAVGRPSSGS

Structure (SMILES)	IC50 (Caspase-3)	IC50 [1]	IC50 [2]	IC50 [3]	IC50 [4]
CCOC(=O)C1=C(COC(=O)c2ccc([N+](=O)[O-])s2)NC(=O)NC1C (centres undefined)	8.13 µM (active)	6.1 µM (active)	4.48 µM (active)	3.57 µM (active)	
Oc1cccc(/C=N/Nc2cc(N3CCCC3)nc(N3CCCC3)n2)c1	> 100 µM (inactive)	9.99 µM (active)	6.69 µM (active)	17.2 µM (active)	5.83 µM (active)
